Reference: patent publication US12449415B2, “Diagnostics” (Queen Mary University of London, priority 2014, dated 2025)

Experiments:
Format in all cases: cell-based, human
[1] = test system: isolated neutrophils; assay: Glutamate biosensor recording of PMA-stimulated glutamate release, glutamate antagonist experiment (FIG. 1E)
Protocol: Neutrophil preparation from 15 ml of whole blood was achieved by first adding 30 ml PBS under sterile conditions. Half of the PBS/Blood mix was carefully layered on a 15 ml layer of Ficoll-Paque Plus solution in two separate 50 ml falcons using an electronic pipette. The sample was then centrifuged at 1400 rpm at room temp for 30 minutes. 15 ml of sterile blood lysis buffer was added to the pellet centrifuged at 1200 rpm, undergoing 2 lysis cycles. The remaining pellet was washed with sterile PBS, resuspended in 10 ml PBS and the cells were counted. 10 mmol/L of glucose (plasma concentration) was then added in the sample. […]
The sensors were calibrated after every run with stock solutions: 20 μM (in neutrophils) or 40 μM (in blood) of glutamate, <<insert for lactate>> 1 μM (in neutrophils) or 10 μM (in blood) of D-Serine, 10 μM (in neutrophils) or (13.3 μM) of ATP and 0.748 μM adenosine in blood only. To convert changes in the sensor current to changes in the analyte concentrations, the midpoint of the calibration signal at the end of each run and the midpoint of the peak of the net responses (measured from the extrapolated baseline) were used. […]
This experiment was carried out using isolated neutrophils or whole blood from a patient. […] A null sensor measured non-specific release of oxygen reactive species. […]

[2] = test system: heparinised whole blood; assay: D-serine biosensor recording of D-serine release in whole blood; conditions: 1 ml heparinised whole blood, 37° C.; FIG. 3
Protocol: (§1) The ATP sensors comprised two enzymes, glycerol kinase and glycerol-3-phosphate Oxidase, the adenosine sensor comprised of three enzymes, adenosine deaminase, nucleoside phosphorylase, and xanthine oxidase while the glutamate sensor contained glutamate oxidase. The D-Serine sensor contained D-amino acid oxidase. The ATP sensor had to be stored in 1M glycerol solution for 30 min to be able to operate.
(§2) 1.5 ml of the prepared sample (whole blood or isolated neutrophils in PBS/glucose) was pipetted into the temperature controlled chamber with a micro-magnetic stirrer for 5 minutes before the sensors were inserted. The sensors were held on a stereotaxic micro-manipulator with the entire sensing tip inserted in the sample, ensuring maximum analyte detection probability. Recordings were done with either all sensors simultaneously or with various combinations according to the sensor availability and aim of the experiment. […] After any detected response signal levelled off, the calibrations were carried out. […]
Samples of whole blood from human patients were analysed using the Sarissagold D-Serine sensor.
(§3) PMA was added to 1 ml heparinised whole blood maintained at 37° C. […] A null sensor measured non-specific release of oxygen reactive species. […]

[3] = test system: heparinised whole blood; assay: Acetylcholine biosensor recording of acetylcholine release in whole blood; conditions: 1 ml heparinised whole blood, 37° C.; FIG. 4
Protocol: 1.5 ml of the prepared sample (whole blood or isolated neutrophils in PBS/glucose) was pipetted into the temperature controlled chamber with a micro-magnetic stirrer for 5 minutes before the sensors were inserted. The sensors were held on a stereotaxic micro-manipulator with the entire sensing tip inserted in the sample, ensuring maximum analyte detection probability. Recordings were done with either all sensors simultaneously or with various combinations according to the sensor availability and aim of the experiment. Once a steady-state baseline was achieved, 100 nM of PMA or opsonised E. coli were added to the chamber, avoiding contact with the sensors to limit the noise interference. After any detected response signal levelled off, the calibrations were carried out. A control run was always carried out for each experiment where only PMA/E. coli was applied followed by a calibration. The chamber and the sensors were rinsed with PBS or distilled water before every run.
Samples of whole blood from human patients were analysed using the Sarissagold acetylcholine sensor.
PMA was added to 1 ml heparinised whole blood maintained at 37° C. (as indicated by PMA in FIG. 4). A null sensor measured non-specific release of oxygen reactive species. The accetylcholine sensor detects acetylcholine release in real time. The tips of the sensors were 2 mm under the surface of the blood. […]

[4] = test system: heparinised whole blood; assay: Glutamate biosensor recording of glutamate release in stimulated whole blood
Protocol: Recordings were carried out in a custom made chamber (1.7 ml maximum volume) and the temperature of the chamber was controlled by a Circulator C-85D. The sensors were connected to a Due-Stat ME200+ potentiostat (Sycopel International Ltd, Jarrow, UK) which was then connected to a Power 1401 interface for processing of the signal. The operating potential for Sarissaprobes was +600 mV and −50 mV for Sarissagold sensors (switched to +600 m V when not operating). The recordings were analysed by Spike2 software.
Blood was collected from patients or from healthy volunteers and stored in heparinised vials (local ethics approved). The samples were kept on ice and were tested within 1 h of collection. […]
Unless stated otherwise, samples of whole blood from human patients were analysed using the Sarissaprobes and Sarissagold glutamate sensors. […]

[5] = test system: heparinised whole blood; assay: ATP biosensor recording of ATP release in whole blood; conditions: 1 ml heparinised whole blood, 37° C.; FIG. 2
Protocol: as §1, §2
Samples of whole blood from human patients were analysed using the Sarissagold ATP sensor.
as §3

SMILES | PMA-stimulated glutamate release in the presence of the antagonist ([1]; isolated neutrophils, antagonist 100 μM added 1 minute before PMA) | response recorded using the D-serine sensor after addition of the stimulus [2] | response recorded using the acetylcholine sensor after addition of the stimulus [3] | response recorded using the glutamate sensor after addition of the stimulus ([4]; 1 ml heparinised whole blood, 37° C., FIG. 1A/1B) | glutamate release on subsequent stimulation ([4]; PMA added 5 minutes after opsonised E. coli, FIG. 1C) | response recorded using the ATP sensor after addition of the stimulus [5] | release of glutamate ([1]; PMA added to 1 ml heparinised whole blood (so in the source), no antagonist) [μm]
Cc1ccc(CC2(O)CCN(CCOc3ccc(O)cc3)CC2)cc1 [CO101244] | failed to increase glutamate release |  |  |  |  |  | 
CCCCCCCCCCCCCC(=O)O[C@@H]1[C@@H](C)[C@@]2(O)[C@@H](C=C(CO)C[C@]3(O)C(=O)C(C)=C[C@@H]23)[C@@H]2C(C)(C)[C@]12OC(C)=O [PMA, phorbol myristate acetate] |  | led to an increase in the response | led to an increase in the response | led to an increase in the response | failed to increase glutamate release | led to an increase in the response | ~15
